The values that follow come from US12365696B2, “Small-molecule focal adhesion kinase (FAK) inhibitors” (DANA-FARBER CANCER INSTITUTE, INC., priority 2019, dated 2025).

Assay [1] deals with SGK2 (Homo sapiens (Human), UniProt Q9HBY8). Nature of the assay: KINOMEscan. The class given is binding. Particulars: SGK2, 10000 nM; read-out: Percent Control.
For assay [2], the target named is MAP4K5 (Homo sapiens (Human), UniProt Q9Y4K4). Nature of the assay: KINOMEscan. Format: binding. Particulars: MAP4K5, 10000 nM; read-out: Percent Control.
Assay [3] has as its target ADCK3 (Homo sapiens (Human), UniProt Q8NI60). The assay is described as follows: KINOMEscan. Format: binding. Particulars: ADCK3, 10000 nM; read-out: Percent Control.
Assay [4] concerns the target TSSK1B (Homo sapiens (Human), UniProt Q9BXA7). Nature of the assay: KINOMEscan. Particulars: 10000 nM, read-out: Percent Control. Format: binding.
Assay [5] deals with KIT(D816V) (Homo sapiens (Human), UniProt P10721, D816V). Nature of the assay: KINOMEscan. Format: binding. The note with it: 10000 nM, read-out: Percent Control.
Assay [6] has as its target MEK1 (Homo sapiens (Human), UniProt Q02750). Nature of the assay: KINOMEscan. The class given is binding. Particulars: MEK1, 10000 nM; read-out: Percent Control.
The target of assay [7] is DCAMKL1 (Homo sapiens (Human), UniProt O15075). The assay is described as follows: KINOMEscan. The class given is binding. The note with it: DCAMKL1, 10000 nM; read-out: Percent Control.
Assay [8] deals with PRKX (Homo sapiens (Human), UniProt P51817). The assay is described as follows: KINOMEscan. The class given is binding. Particulars: 10000 nM, read-out: Percent Control.
Assay [9] concerns the target MAP3K2 (Homo sapiens (Human), UniProt Q9Y2U5). Nature of the assay: KINOMEscan. The note with it: MAP3K2, 10000 nM; read-out: Percent Control. Format: binding.
Assay [10] concerns the target AAK1 (Homo sapiens (Human), UniProt Q2M2I8). The assay is described as follows: KINOMEscan. The class given is binding. The note with it: AAK1, 10000 nM; read-out: Percent Control.
Assay [11] has as its system MDA-MB-231 cells. The assay is described as follows: ultra-low adherent 3D-spheroid suspension cell viability (3D Cell Titer-Glo), 120 hours. Format: cell-based. Particulars: Homo sapiens. As for the experimental part:
For ultra-low adherent 3D-spheroid suspensions, MDA-MB-231 cells were plated in 384-well format in media containing 10% Matrigel® and allowed to form spheroids overnight. Cells were treated with indicated molecules from compound stock plates using a JANUS® Workstation pin tool for 120 hours. To measure cell viability, 3D Cell Titer-Glo® was added to wells for 15 minutes at room temperature and luminescence was measured on an EnVision™ 2104 Multilabel Plate Reader.

The target in assay [12] is TRKB (Homo sapiens (Human), UniProt Q16620). Nature of the assay: KINOMEscan. The note with it: 10000 nM, read-out: Percent Control. The class given is binding.
In assay [13] the target is ZAP70 (Homo sapiens (Human), UniProt P43403). The assay is described as follows: KINOMEscan. The note with it: ZAP70, 10000 nM; read-out: Percent Control. Format: binding.
For assay [14], the target named is TAOK2 (Homo sapiens (Human), UniProt Q9UL54). The assay is described as follows: KINOMEscan. Particulars: TAOK2, 10000 nM; read-out: Percent Control. The class given is binding.
For assay [15], the target named is CAMK1B (Homo sapiens (Human), UniProt Q6P2M8). Nature of the assay: KINOMEscan. Format: binding. The note with it: 10000 nM, read-out: Percent Control.
Assay [16] deals with JAK1(JH2domain-pseudokinase) (Homo sapiens (Human), UniProt P23458). The assay is described as follows: KINOMEscan. The class given is binding. Particulars: 10000 nM, read-out: Percent Control.
The target in assay [17] is PLK1 (Homo sapiens (Human), UniProt P53350). Nature of the assay: Biochemical IC50 (Invitrogen) of off-targets.
Assay [18] deals with DCLK2 (Homo sapiens (Human), UniProt Q8N568). Nature of the assay: Biochemical IC50 (Invitrogen) of off-targets.
Assay [19] has as its target STK33 (Homo sapiens (Human), UniProt Q9BYT3). The assay is described as follows: Biochemical IC50 (Invitrogen) of off-targets.
Assay [20] deals with DCLK1 (Homo sapiens (Human), UniProt O15075). The assay is described as follows: Biochemical IC50 (Invitrogen) of off-targets.
The target in assay [21] is TNK1 (Homo sapiens (Human), UniProt Q13470). Nature of the assay: Biochemical IC50 (Invitrogen) of off-targets.

Each structure is given as a SMILES string.

Chain of CAMK1B (Q6P2M8 whole entry): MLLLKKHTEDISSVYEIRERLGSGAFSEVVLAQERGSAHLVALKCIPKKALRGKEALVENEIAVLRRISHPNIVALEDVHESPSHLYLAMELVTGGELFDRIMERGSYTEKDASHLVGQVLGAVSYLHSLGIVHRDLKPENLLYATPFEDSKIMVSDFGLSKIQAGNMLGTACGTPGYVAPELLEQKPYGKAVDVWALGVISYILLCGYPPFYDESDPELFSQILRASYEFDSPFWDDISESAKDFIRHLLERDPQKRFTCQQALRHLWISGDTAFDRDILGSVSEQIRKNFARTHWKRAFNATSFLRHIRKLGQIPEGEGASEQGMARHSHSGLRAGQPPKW
Chain of DCAMKL1 (O15075 whole entry, looked up): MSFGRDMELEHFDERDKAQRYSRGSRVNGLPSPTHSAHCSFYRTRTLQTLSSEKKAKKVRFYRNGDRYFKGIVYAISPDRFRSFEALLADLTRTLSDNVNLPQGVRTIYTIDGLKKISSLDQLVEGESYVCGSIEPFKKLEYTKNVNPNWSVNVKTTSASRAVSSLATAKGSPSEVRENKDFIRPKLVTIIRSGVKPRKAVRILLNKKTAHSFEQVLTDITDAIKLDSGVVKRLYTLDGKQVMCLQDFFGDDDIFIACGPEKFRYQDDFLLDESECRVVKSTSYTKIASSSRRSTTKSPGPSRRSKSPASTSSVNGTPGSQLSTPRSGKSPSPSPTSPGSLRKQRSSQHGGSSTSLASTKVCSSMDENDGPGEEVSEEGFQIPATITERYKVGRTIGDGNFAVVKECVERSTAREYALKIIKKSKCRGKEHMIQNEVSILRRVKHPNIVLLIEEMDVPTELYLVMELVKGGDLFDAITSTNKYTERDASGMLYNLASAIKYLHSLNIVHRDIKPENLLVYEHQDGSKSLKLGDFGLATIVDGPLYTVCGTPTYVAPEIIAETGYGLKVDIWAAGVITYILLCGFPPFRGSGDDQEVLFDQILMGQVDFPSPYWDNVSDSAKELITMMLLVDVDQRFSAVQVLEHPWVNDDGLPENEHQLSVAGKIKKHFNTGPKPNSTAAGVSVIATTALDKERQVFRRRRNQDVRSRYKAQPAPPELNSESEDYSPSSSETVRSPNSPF
Chain of TSSK1B (Q9BXA7 whole entry): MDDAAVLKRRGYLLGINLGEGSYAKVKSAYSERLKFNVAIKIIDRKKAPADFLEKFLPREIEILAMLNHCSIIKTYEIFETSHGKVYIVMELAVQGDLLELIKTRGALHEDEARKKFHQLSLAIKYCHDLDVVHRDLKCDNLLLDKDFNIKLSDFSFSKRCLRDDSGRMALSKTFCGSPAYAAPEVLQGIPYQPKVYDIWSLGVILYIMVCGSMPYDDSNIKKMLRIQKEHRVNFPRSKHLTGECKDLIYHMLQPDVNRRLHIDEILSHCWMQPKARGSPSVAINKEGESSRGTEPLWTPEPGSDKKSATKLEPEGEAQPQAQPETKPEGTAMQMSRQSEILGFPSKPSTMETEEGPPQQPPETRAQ
Chain of PRKX (P51817 whole entry): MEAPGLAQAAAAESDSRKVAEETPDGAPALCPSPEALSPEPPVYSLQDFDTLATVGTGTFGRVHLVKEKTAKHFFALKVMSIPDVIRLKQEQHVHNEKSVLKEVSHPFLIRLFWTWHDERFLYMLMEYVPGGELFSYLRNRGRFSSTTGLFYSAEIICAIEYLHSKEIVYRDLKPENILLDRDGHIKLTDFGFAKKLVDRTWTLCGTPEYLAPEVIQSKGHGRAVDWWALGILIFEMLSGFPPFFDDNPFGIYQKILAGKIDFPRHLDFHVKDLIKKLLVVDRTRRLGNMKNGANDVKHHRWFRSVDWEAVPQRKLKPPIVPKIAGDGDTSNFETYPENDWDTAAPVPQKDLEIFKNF
Chain of TRKB (Q16620 32-822): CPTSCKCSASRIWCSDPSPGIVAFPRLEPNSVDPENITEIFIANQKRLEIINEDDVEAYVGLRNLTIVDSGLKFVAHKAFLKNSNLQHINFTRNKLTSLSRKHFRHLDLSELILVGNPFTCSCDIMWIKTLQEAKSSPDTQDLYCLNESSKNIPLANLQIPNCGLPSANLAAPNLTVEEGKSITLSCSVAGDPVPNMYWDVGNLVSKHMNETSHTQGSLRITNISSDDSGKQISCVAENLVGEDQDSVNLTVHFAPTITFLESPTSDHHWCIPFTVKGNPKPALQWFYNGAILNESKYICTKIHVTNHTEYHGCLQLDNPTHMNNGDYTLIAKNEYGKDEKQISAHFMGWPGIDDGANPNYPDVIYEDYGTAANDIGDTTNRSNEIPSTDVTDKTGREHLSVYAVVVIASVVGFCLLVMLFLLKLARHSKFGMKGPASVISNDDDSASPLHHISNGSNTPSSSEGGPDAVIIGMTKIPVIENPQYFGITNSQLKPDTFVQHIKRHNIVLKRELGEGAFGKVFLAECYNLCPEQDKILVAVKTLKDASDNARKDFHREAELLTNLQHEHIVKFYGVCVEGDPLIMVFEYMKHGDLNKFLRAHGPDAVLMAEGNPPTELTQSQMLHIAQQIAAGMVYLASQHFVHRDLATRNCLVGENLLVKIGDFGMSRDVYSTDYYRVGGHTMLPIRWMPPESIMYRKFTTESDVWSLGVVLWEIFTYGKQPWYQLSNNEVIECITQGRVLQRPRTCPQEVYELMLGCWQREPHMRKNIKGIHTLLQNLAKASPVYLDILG
Chain of KIT(D816V) (P10721 26-976 D816V): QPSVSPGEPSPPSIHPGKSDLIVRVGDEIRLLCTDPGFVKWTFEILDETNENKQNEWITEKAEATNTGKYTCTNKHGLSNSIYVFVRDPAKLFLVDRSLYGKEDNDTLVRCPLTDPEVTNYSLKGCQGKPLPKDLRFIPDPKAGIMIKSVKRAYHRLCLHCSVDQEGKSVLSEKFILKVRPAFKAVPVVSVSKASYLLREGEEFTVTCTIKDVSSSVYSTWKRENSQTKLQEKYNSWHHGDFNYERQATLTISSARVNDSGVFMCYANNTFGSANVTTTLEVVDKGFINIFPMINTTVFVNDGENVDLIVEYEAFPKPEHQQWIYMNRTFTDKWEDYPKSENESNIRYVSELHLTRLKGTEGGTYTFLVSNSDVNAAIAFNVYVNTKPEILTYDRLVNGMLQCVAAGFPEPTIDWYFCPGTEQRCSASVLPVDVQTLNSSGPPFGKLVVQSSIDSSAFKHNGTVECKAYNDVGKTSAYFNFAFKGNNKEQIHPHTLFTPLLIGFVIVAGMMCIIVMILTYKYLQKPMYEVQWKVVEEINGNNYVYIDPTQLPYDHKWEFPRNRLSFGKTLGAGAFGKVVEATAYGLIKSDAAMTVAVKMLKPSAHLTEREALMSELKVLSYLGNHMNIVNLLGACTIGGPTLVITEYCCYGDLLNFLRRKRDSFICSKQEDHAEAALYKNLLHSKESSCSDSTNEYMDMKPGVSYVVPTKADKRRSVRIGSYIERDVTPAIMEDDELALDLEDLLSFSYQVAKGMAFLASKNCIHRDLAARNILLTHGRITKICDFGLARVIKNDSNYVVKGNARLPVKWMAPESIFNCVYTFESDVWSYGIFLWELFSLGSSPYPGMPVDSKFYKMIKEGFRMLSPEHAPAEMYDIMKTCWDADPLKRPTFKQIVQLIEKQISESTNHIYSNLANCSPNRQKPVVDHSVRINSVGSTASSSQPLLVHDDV
Chain of JAK1(JH2domain-pseudokinase) (P23458 583-855): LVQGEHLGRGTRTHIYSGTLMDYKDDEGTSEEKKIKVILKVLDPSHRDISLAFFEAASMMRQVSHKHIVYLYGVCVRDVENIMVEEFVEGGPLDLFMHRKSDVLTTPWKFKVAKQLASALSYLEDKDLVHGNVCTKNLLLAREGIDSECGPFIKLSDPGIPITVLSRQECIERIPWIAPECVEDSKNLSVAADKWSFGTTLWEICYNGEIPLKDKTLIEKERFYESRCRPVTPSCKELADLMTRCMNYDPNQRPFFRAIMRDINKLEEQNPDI
Chain of SGK2 (Q9HBY8 whole entry): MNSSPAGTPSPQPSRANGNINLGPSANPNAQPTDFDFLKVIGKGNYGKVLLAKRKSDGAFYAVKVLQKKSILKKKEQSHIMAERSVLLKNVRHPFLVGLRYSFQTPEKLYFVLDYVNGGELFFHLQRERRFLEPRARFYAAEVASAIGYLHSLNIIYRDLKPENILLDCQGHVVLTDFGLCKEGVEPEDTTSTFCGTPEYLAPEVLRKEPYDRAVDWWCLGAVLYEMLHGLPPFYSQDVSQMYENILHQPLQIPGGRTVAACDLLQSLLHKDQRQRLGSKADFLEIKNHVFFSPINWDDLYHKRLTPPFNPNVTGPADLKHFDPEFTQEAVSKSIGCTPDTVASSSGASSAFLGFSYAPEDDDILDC
Chain of ADCK3 (Q8NI60 163-647): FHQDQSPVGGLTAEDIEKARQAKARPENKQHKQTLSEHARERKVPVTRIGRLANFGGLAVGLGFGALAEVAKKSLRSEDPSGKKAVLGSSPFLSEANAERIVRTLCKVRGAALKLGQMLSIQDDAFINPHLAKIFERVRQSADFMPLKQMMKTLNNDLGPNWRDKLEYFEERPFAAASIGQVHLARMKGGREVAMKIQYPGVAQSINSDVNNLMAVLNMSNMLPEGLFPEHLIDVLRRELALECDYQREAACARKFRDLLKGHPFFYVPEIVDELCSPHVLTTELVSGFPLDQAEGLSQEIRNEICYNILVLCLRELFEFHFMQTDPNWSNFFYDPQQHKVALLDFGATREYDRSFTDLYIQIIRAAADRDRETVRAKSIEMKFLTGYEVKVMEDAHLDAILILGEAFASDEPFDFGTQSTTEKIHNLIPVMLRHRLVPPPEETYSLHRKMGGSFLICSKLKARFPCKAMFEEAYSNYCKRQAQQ
Chain of DCLK1 (O15075 whole entry): as the sequence (O15075 whole entry, looked up) above

As to `COc1cc(N2CCC(N3CCN(C)CC3)CC2)ccc1Nc1ncc2c(n1)N(C)c1sc(C)nc1C(=O)N2` [Compound 3, 6-((2-methoxy-4-(4-(4-methylpiperazin-1-yl)piperidin-1-yl)phenyl)amino)-2,4-dimethyl-4,9-dihydro-10H-pyrimido[5,4-b]thiazolo[5,4-e][1,4]diazepin-10-one], the remaining binding at 10 µM in [1] is 99%; in [2], 82%; in assay [3], 54%; in assay [4] it was 74%; in assay [5], 11%; in [6], 100%. Also, the remaining binding at 10 µM in [7] was found to be 91%; in assay [8], 96%; in assay [9], 100%; in assay [10] it was 48%; in [12], 100%; in assay [13] it was 100%. For the same compound, the remaining binding at 10 µM in assay [14] amounted to 95%; in assay [15], 95%; in [16] it was 85%. Besides, the IC50 (commonly the midpoint of a concentration-inhibition curve) in assay [11] was 6.8 µM.

`COc1cc(N2CCC(N3CCN(C)CC3)CC2)ccc1Nc1ncc2c(n1)N(C)c1sc(C)nc1C(=O)N2C` [Compound 5, 6-((2-methoxy-4-(4-(4-methylpiperazin-1-yl)piperidin-1-yl)phenyl)amino)-2,4,9-trimethyl-4,9-dihydro-10H-pyrimido[5,4-b]thiazolo[5,4-e][1,4]diazepin-10-one]: the remaining binding at 10 µM was 98% in assay [1]; 91% in assay [2]; 88% in [3]; 68% in assay [4]; 100% in assay [5]; 95% in assay [6]. Further, the remaining binding at 10 µM in assay [7] is 7.9%; in [8], 99%; in assay [9], 100%; in assay [12], 100%; in assay [13], 100%; in [14], 93%. In addition, the remaining binding at 10 µM in assay [15] was found to be 92%; in assay [16] it was 89%. Also, the IC50 amounted to 8.28 µM in assay [17]; 3.12 µM in assay [18]; 2.13 µM in assay [19]; 6.5 µM in assay [20]; 3.17 µM in [21].
